What all share (type): biochemical
The target of one test is YES (Homo sapiens, UniProt P07947). As to the kind of experiment: Activity against various protein tyrosine kinases: YES.
Another test concerns the target T1, CHK1 (Homo sapiens, UniProt O14757).
T1 sequence (O14757 1-476): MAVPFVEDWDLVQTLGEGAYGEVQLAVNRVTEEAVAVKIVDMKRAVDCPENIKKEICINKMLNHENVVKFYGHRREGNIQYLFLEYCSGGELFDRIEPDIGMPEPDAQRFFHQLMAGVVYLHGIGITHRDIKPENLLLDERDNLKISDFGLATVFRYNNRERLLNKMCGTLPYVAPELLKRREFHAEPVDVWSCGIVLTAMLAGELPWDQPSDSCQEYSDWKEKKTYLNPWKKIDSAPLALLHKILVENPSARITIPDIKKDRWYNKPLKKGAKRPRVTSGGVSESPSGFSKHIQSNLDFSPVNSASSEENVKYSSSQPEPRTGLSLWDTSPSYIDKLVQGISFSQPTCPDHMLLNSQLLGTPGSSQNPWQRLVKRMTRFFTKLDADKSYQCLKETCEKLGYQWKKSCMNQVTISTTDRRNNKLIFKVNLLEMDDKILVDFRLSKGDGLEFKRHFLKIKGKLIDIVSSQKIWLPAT
Nature of the test: Activity against various protein tyrosine kinases: CHK1.

In another test the target is PDGFR_alpha (Homo sapiens, UniProt P16234). Nature of the test: Activity against various protein tyrosine kinases: PDGFR_alpha.
PDGFR_alpha, sequence (P16234 24-1089, species assumed): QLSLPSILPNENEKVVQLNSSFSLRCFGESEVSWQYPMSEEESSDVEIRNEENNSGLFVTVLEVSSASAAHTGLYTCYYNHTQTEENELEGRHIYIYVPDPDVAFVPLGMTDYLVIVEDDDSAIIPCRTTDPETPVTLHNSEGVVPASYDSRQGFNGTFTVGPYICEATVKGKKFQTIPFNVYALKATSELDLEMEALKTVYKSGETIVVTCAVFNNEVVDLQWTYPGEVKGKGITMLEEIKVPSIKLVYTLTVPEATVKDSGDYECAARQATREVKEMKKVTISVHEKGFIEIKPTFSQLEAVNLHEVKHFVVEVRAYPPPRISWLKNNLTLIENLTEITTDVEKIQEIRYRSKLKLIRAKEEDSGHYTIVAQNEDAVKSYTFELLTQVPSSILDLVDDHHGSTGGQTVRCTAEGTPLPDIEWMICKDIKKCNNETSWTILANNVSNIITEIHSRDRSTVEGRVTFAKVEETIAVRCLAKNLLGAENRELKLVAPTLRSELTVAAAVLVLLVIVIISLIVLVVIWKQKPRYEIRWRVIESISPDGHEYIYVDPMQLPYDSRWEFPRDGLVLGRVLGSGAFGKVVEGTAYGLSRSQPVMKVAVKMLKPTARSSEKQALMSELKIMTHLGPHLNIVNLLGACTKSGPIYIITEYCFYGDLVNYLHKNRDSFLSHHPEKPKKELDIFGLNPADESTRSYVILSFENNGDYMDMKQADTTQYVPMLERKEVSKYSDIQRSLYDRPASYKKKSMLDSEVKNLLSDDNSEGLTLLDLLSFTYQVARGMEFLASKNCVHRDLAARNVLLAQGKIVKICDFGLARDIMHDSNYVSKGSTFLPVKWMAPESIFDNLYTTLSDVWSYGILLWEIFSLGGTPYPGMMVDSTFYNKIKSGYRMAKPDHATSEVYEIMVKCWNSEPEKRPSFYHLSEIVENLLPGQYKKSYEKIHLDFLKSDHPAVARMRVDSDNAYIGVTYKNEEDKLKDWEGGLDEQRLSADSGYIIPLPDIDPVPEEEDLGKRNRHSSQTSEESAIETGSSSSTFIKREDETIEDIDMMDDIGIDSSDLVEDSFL
The target in the next test is T2, IKK-beta (Homo sapiens, UniProt O14920).
T2 sequence (O14920 1-756): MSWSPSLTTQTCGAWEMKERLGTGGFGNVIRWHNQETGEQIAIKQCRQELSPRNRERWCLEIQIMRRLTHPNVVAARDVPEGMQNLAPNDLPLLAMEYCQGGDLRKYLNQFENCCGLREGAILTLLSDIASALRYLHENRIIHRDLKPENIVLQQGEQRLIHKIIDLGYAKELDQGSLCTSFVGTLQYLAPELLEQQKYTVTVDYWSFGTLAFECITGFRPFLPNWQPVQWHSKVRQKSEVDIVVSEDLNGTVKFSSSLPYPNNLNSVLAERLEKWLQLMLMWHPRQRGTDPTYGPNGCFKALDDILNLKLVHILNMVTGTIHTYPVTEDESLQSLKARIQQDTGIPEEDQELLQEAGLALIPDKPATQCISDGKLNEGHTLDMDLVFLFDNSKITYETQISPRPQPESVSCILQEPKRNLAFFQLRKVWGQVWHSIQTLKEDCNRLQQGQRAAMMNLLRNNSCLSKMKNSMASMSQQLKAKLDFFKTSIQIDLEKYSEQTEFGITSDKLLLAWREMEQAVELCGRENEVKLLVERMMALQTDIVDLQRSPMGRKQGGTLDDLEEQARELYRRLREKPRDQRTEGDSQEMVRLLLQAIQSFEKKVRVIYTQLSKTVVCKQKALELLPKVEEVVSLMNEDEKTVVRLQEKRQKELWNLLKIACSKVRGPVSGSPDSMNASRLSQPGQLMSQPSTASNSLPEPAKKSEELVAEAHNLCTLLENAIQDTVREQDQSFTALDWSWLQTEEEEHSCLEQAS
As to the kind of experiment: Activity against various protein tyrosine kinases: IKK-beta.

The target in another test is BTK (Homo sapiens, UniProt Q06187). As to the kind of experiment: Activity against various protein tyrosine kinases: BTK. As to the method:
(§1) Using techniques know those of ordinary skill in the art, compounds were tested for activity against various protein tyrosine kinases.

In a further test the target is T3, TSSK2 (Homo sapiens, UniProt Q96PF2).
T3 sequence (Q96PF2 1-358): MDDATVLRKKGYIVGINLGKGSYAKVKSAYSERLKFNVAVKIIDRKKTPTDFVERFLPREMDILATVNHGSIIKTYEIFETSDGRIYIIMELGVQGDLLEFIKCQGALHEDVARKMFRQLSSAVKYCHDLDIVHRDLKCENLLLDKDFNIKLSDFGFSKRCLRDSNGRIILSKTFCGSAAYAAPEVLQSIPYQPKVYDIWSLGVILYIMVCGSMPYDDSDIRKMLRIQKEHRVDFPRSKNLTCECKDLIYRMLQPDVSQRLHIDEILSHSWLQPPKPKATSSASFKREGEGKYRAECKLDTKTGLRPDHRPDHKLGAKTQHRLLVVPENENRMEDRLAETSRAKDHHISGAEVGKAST
Nature of the test: Activity against various protein tyrosine kinases: TSSK2.

A further test addresses EPHA2 (Homo sapiens, UniProt P29317). Nature of the test: Activity against various protein tyrosine kinases: EPHA2.
In another test the target is CK1d (Homo sapiens, UniProt P48730). Nature of the test: Activity against various protein tyrosine kinases: CK1d.
CK1d, sequence (P48730 whole entry): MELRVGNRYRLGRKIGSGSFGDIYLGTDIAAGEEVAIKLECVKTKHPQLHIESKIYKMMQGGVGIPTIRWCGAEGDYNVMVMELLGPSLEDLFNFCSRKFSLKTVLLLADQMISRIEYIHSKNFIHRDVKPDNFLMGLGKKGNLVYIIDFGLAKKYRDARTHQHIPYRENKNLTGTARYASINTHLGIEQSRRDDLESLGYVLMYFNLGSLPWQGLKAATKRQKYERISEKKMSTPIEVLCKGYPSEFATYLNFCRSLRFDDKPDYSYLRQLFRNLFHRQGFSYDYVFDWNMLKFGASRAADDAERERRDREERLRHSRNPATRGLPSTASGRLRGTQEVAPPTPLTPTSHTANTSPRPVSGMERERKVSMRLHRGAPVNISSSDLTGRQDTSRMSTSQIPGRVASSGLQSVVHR
The target in another test is ABL(H396P) (Homo sapiens, UniProt P00519, H396P). As to the kind of experiment: Activity against various protein tyrosine kinases: ABL(H396P). As to the method:
as §1

The next test addresses p38a (Homo sapiens, UniProt Q16539). Nature of the test: Activity against various protein tyrosine kinases: p38a.
Another test has as its target T4, p38-delta (Homo sapiens, UniProt O15264).
T4 sequence (O15264 1-365): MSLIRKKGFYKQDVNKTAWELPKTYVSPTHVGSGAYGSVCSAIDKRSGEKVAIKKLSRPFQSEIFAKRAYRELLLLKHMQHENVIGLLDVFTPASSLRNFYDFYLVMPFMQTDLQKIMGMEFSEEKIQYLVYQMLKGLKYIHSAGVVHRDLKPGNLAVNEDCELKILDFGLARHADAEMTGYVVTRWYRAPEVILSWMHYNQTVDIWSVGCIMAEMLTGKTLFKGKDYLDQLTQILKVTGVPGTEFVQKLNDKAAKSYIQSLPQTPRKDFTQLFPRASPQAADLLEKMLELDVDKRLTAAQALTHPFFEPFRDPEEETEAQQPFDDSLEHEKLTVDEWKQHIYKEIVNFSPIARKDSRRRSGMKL
As to the kind of experiment: Activity against various protein tyrosine kinases: p38-delta.

YES, sequence (P07947 whole entry, species assumed): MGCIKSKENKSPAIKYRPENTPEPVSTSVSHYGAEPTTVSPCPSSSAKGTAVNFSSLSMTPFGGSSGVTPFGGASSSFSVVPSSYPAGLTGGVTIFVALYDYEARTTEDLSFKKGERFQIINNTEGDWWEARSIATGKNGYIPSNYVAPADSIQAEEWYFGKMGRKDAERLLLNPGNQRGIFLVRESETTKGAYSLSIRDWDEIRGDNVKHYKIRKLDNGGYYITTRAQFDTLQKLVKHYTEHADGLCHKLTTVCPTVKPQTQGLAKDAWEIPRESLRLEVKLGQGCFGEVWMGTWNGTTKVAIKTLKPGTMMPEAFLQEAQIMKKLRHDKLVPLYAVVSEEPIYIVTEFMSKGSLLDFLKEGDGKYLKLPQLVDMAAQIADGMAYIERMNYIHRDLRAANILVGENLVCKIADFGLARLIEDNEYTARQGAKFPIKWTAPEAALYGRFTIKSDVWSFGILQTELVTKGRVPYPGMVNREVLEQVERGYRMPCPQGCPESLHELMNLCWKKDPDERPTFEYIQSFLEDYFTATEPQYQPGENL
EPHA2, sequence (P29317 24-976, species assumed): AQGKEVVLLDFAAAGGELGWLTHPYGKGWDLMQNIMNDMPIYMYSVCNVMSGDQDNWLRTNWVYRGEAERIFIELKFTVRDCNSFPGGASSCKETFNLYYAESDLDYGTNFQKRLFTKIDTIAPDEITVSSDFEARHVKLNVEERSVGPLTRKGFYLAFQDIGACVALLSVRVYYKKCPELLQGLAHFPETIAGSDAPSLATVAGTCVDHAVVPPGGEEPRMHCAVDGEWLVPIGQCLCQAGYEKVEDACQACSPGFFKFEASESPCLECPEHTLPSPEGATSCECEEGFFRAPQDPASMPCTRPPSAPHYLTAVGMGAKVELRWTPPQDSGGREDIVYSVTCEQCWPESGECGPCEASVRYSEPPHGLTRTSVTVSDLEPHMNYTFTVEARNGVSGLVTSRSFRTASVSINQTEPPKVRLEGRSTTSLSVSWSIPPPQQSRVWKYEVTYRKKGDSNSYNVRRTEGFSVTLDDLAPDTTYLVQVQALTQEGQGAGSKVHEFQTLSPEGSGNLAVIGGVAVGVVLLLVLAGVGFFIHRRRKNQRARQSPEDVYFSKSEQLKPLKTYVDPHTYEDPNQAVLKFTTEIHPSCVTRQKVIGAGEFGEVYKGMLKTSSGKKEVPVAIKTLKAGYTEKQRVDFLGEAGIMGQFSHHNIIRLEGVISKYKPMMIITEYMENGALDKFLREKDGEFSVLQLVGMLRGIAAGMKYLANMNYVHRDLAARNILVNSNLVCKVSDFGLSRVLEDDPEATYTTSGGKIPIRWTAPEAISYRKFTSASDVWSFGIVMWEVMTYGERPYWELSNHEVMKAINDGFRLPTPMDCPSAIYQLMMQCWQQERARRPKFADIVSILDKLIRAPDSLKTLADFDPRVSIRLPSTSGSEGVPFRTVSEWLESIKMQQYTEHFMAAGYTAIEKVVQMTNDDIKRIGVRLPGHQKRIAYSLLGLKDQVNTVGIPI
BTK, sequence (Q06187 whole entry, species assumed): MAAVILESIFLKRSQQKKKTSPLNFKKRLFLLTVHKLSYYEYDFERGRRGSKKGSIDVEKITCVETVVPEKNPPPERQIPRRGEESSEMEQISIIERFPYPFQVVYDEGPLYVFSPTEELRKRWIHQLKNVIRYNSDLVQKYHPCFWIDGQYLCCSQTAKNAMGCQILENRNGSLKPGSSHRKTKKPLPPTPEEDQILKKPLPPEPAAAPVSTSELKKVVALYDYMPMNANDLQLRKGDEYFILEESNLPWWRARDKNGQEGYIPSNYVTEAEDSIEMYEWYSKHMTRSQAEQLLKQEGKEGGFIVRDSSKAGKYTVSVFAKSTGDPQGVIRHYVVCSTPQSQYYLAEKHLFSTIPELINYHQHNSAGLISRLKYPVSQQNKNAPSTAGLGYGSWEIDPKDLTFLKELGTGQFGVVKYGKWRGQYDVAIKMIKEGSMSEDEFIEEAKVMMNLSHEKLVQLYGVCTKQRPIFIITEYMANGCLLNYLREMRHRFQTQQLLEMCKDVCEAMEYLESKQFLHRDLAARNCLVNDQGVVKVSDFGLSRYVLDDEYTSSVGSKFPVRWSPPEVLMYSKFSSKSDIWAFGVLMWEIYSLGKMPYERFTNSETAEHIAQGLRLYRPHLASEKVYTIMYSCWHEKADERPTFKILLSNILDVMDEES
p38a, sequence (Q16539 whole entry): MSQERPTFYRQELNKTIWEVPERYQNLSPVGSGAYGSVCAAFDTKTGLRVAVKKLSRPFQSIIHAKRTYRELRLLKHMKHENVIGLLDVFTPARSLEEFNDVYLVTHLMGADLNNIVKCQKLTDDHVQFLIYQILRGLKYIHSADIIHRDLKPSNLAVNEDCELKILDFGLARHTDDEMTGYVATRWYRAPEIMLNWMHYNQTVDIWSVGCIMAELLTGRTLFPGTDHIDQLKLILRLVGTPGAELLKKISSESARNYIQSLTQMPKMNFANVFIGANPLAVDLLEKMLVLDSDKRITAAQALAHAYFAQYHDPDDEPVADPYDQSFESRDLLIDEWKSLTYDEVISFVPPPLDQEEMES

The term % Inhibition denotes the drop in the measured response relative to a control, in per cent. `COCCOCCOCCNC(=O)OCCN1CCN(c2cc(Nc3ncc(C(=O)Nc4c(C)cccc4Cl)s3)nc(C)n2)CC1` [mPEG3-NHCOO-Dasatinib]: the “% Inhibition at 10 nM” value was 100% at YES; −2% on CHK1; 58% at PDGFR_alpha; 0% on IKK-beta; 99% at BTK; −1% on TSSK2. Besides, the “% Inhibition at 10 nM” value on EPHA2 turned out to be 40%; at CK1d it was 1%; at ABL(H396P), 99%; on p38a, 6%; on p38-delta, 0%. The “% Inhibition at 1 μM” value is recorded as 100% on YES; 0% at CHK1; 99% at PDGFR_alpha; 1% on IKK-beta; 100% at BTK; 0% on TSSK2. For the same compound, the “% Inhibition at 1 μM” value was found to be 100% at EPHA2; 3% at CK1d; 99% at ABL(H396P); 81% on p38a; 2% at p38-delta.
Consider `COCCOCCOCCOCCOCCOCCOCCNC(=O)OCCN1CCN(c2cc(Nc3ncc(C(=O)Nc4c(C)cccc4Cl)s3)nc(C)n2)CC1` [mPEG7-NHCOO-Dasatinib], for which the “% Inhibition at 10 nM” value was found to be 100% on YES; 10% at CHK1; 46% at PDGFR_alpha; 2% on IKK-beta; 99% at BTK; 3% at TSSK2. The “% Inhibition at 10 nM” value on EPHA2 is on record as 36%; on CK1d, 0%; on ABL(H396P), 99%; on p38a it was 5%; on p38-delta, 0%. For the same compound, the “% Inhibition at 1 μM” value on YES is listed as 102%; on CHK1, 8%; at PDGFR_alpha, 98%; on IKK-beta, 2%; on BTK it was 100%; on TSSK2, −2%. Besides, the “% Inhibition at 1 μM” value on EPHA2 is recorded as 101%; on CK1d, 9%; on ABL(H396P), 99%; on p38a, 74%; on p38-delta it was 0%.
